# Test results from PubChem BioAssay AID1845203 (Molecular Pharmacology Branch, DTP, NCI, 2023).
# Where “and” joins values, the source holds several entries; their conditions need not be identical. Identical values can stand only once.
# Test system: G-401 tumor spheroids, viability % test/control
# Assay: Anticancer human tumor G-401 cell line growth inhibition;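 note: spheroids exposed to compound for 7 days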;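 for viability, T/C: 100% = DMSO vehicle-treated spheroids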
# Conditions: spheroids with HUVEC and MSC; for viability, T/C: stronger effect = lower value
# In short: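 Complex spheroids of malignant cells with endothelial cells and mesenchymal stem cells; agents alone or combined, from near clinical Cmax (or 10 microM if unknown) down in half-log steps, 0.25% DMSO final.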
# [1] = curve of first compound, second compound 0.003 µM
# [2] = curve of first compound, second compound 0.00949 µM
# [3] = curve of first compound, second compound 0.03 µM
# [4] = curve of first compound, second compound 0.0949 µM
# [5] = curve of first compound, second compound 0.3 µM
# [6] = second compound 0.003 µM, first compound 0.0316 µM
# [7] = second compound 0.003 µM, first compound 0.1 µM
# [8] = second compound 0.003 µM, first compound 0.316 µM
# [9] = second compound 0.003 µM, first compound 1 µM
# [10] = second compound 0.003 µM, first compound 3.16 µM
# [11] = second compound 0.003 µM, first compound 10 µM
# [12] = second compound 0.00949 µM, first compound 0.0316 µM
# [13] = second compound 0.00949 µM, first compound 0.1 µM
# [14] = second compound 0.00949 µM, first compound 0.316 µM
# [15] = second compound 0.00949 µM, first compound 1 µM
# [16] = second compound 0.00949 µM, first compound 3.16 µM
# [17] = second compound 0.00949 µM, first compound 10 µM
# [18] = second compound 0.03 µM, first compound 0.0316 µM
# [19] = second compound 0.03 µM, first compound 0.1 µM
# [20] = second compound 0.03 µM, first compound 0.316 µM
# [21] = second compound 0.03 µM, first compound 1 µM
# [22] = second compound 0.03 µM, first compound 3.16 µM
# [23] = second compound 0.03 µM, first compound 10 µM
# [24] = second compound 0.0949 µM, first compound 0.0316 µM
# [25] = second compound 0.0949 µM, first compound 0.1 µM
# [26] = second compound 0.0949 µM, first compound 0.316 µM
# [27] = second compound 0.0949 µM, first compound 1 µM
# [28] = second compound 0.0949 µM, first compound 3.16 µM
# [29] = second compound 0.0949 µM, first compound 10 µM
# [30] = second compound 0.3 µM, first compound 0.0316 µM
# [31] = second compound 0.3 µM, first compound 0.1 µM
# [32] = second compound 0.3 µM, first compound 0.316 µM
# [33] = second compound 0.3 µM, first compound 1 µM
# [34] = second compound 0.3 µM, first compound 3.16 µM
# [35] = second compound 0.3 µM, first compound 10 µM
compound,measurement,setting,value
COc1ccc([C@@H](O)c2cc(-c3ncnc4cc(N5CCOCC5)ccc34)c(F)cc2Cl)nn1 + CC[C@@]1(O)C(=O)OCc2c1cc1n(c2=O)Cc2cc3c(CN(C)C)c(O)ccc3nc2-1,IC50,[1],864 nM
same,IC50,[2],< 31.6 nM
same,IC50,[3],< 31.6 nM
same,IC50,[4],< 31.6 nM
same,IC50,[5],< 31.6 nM
same,"viability, T/C",[6],84.4%
same,"viability, T/C",[7],84.2%
same,"viability, T/C",[8],66.6%
same,"viability, T/C",[9],48.3%
same,"viability, T/C",[10],23.6%
same,"viability, T/C",[11],9.59%
same,"viability, T/C",[12],43.5%
same,"viability, T/C",[13],41.3%
same,"viability, T/C",[14],40.5%
same,"viability, T/C",[15],26.8%
same,"viability, T/C",[16],11.7%
same,"viability, T/C",[17],5.69%
same,"viability, T/C",[18],16.9%
same,"viability, T/C",[19],15.9%
same,"viability, T/C",[20],11.2%
same,"viability, T/C",[21],8.51%
same,"viability, T/C",[22],5.48%
same,"viability, T/C",[23],3.09%
same,"viability, T/C",[24],7.39%
same,"viability, T/C",[25],7.68%
same,"viability, T/C",[26],6.35%
same,"viability, T/C",[27],5.25%
same,"viability, T/C",[28],3.31%
same,"viability, T/C",[29],1.7%
same,"viability, T/C",[30],4.49%
same,"viability, T/C",[31],4.63%
same,"viability, T/C",[32],3.66%
same,"viability, T/C",[33],2.59%
same,"viability, T/C",[34],0.94%
same,"viability, T/C",[35],0.33%
[2H]c1nc(C)nc([2H])c1-c1cc(NC[C@@H](C)c2cccc3c(C(=O)NC)ccnc23)ncn1,"viability, T/C",compound 0.0316 µM,104% and 105% and 96.6%
same,"viability, T/C",compound 0.1 µM,108% and 98.9% and 97.7%
same,"viability, T/C",compound 0.316 µM,103% and 105% and 98.1%
same,"viability, T/C",compound 1 µM,102% and 98.9% and 98.6%
same,"viability, T/C",compound 3.16 µM,105% and 103% and 98.3%
same,"viability, T/C",compound 10 µM,104% and 103% and 98%
same,IC50,curve of compound,> 10000 nM
[2H]c1nc(C)nc([2H])c1-c1cc(NC[C@@H](C)c2cccc3c(C(=O)NC)ccnc23)ncn1 + CC[C@@]1(O)C(=O)OCc2c1cc1n(c2=O)Cc2cc3c(CN(C)C)c(O)ccc3nc2-1,IC50,[1],> 10000 nM
same,IC50,[2],< 31.6 nM
same,IC50,[3],< 31.6 nM
same,IC50,[4],< 31.6 nM
same,IC50,[5],< 31.6 nM
same,"viability, T/C",[6],83.5%
same,"viability, T/C",[7],94.3%
same,"viability, T/C",[8],85.3%
same,"viability, T/C",[9],82.5%
same,"viability, T/C",[10],75.9%
same,"viability, T/C",[11],81%
same,"viability, T/C",[12],45.4%
same,"viability, T/C",[13],47.3%
same,"viability, T/C",[14],47.1%
same,"viability, T/C",[15],40.1%
same,"viability, T/C",[16],38.9%
same,"viability, T/C",[17],30.1%
same,"viability, T/C",[18],14.6%
same,"viability, T/C",[19],17.2%
same,"viability, T/C",[20],14%
same,"viability, T/C",[21],16.9%
same,"viability, T/C",[22],15.4%
same,"viability, T/C",[23],12.3%
same,"viability, T/C",[24],7.88%
same,"viability, T/C",[25],8.52%
same,"viability, T/C",[26],8.28%
same,"viability, T/C",[27],7.66%
same,"viability, T/C",[28],7.94%
same,"viability, T/C",[29],6.94%
same,"viability, T/C",[30],4.71%
same,"viability, T/C",[31],4.82%
same,"viability, T/C",[32],5.34%
same,"viability, T/C",[33],5%
same,"viability, T/C",[34],4.69%
same,"viability, T/C",[35],5.48%
CNCc1ccc(-c2cc(-c3nc(-c4ccc(S(=O)(=O)C(C)C)cc4)cnc3N)on2)cc1 + CC[C@@]1(O)C(=O)OCc2c1cc1n(c2=O)Cc2cc3c(CN(C)C)c(O)ccc3nc2-1,IC50,[1],326 nM
same,IC50,[2],< 9.49 nM
same,IC50,[3],< 9.49 nM
same,IC50,[4],< 9.49 nM
same,IC50,[5],< 9.49 nM
same,"viability, T/C","second compound 0.003 µM, first compound 0.00949 µM",82.9%
same,"viability, T/C","second compound 0.003 µM, first compound 0.03 µM",88%
same,"viability, T/C","second compound 0.003 µM, first compound 0.0949 µM",81.7%
same,"viability, T/C","second compound 0.003 µM, first compound 0.3 µM",50.5%
same,"viability, T/C","second compound 0.003 µM, first compound 0.949 µM",30.2%
same,"viability, T/C","second compound 0.003 µM, first compound 3 µM",21.1%
same,"viability, T/C","second compound 0.00949 µM, first compound 0.00949 µM",43.9%
same,"viability, T/C","second compound 0.00949 µM, first compound 0.03 µM",51.2%
same,"viability, T/C","second compound 0.00949 µM, first compound 0.0949 µM",39.5%
same,"viability, T/C","second compound 0.00949 µM, first compound 0.3 µM",21.5%
same,"viability, T/C","second compound 0.00949 µM, first compound 0.949 µM",16.5%
same,"viability, T/C","second compound 0.00949 µM, first compound 3 µM",17.1%
same,"viability, T/C","second compound 0.03 µM, first compound 0.00949 µM",21%
same,"viability, T/C","second compound 0.03 µM, first compound 0.03 µM",15.8%
same,"viability, T/C","second compound 0.03 µM, first compound 0.0949 µM",17.9%
same,"viability, T/C","second compound 0.03 µM, first compound 0.3 µM",19.5%
same,"viability, T/C","second compound 0.03 µM, first compound 0.949 µM",20.8%
same,"viability, T/C","second compound 0.03 µM, first compound 3 µM",18.1%
same,"viability, T/C","second compound 0.0949 µM, first compound 0.00949 µM",8.75%
same,"viability, T/C","second compound 0.0949 µM, first compound 0.03 µM",8.82%
same,"viability, T/C","second compound 0.0949 µM, first compound 0.0949 µM",12.4%
same,"viability, T/C","second compound 0.0949 µM, first compound 0.3 µM",16.4%
same,"viability, T/C","second compound 0.0949 µM, first compound 0.949 µM",16.9%
same,"viability, T/C","second compound 0.0949 µM, first compound 3 µM",13.3%
same,"viability, T/C","second compound 0.3 µM, first compound 0.00949 µM",4.81%
same,"viability, T/C","second compound 0.3 µM, first compound 0.03 µM",6.19%
same,"viability, T/C","second compound 0.3 µM, first compound 0.0949 µM",7.23%
same,"viability, T/C","second compound 0.3 µM, first compound 0.3 µM",9.53%
same,"viability, T/C","second compound 0.3 µM, first compound 0.949 µM",9.78%
same,"viability, T/C","second compound 0.3 µM, first compound 3 µM",4.97%
COc1cc(C)[nH]c(=O)c1CN1CCc2c(Cl)cc(C(OC)C3COC3)c(Cl)c2C1=O (configuration not stated) + CC[C@@]1(O)C(=O)OCc2c1cc1n(c2=O)Cc2cc3c(CN(C)C)c(O)ccc3nc2-1,IC50,[1],130 nM
same,IC50,[2],< 31.6 nM
same,IC50,[3],< 31.6 nM
same,IC50,[4],< 31.6 nM
same,IC50,[5],< 31.6 nM
same,"viability, T/C",[6],85.9%
same,"viability, T/C",[7],52.9%
same,"viability, T/C",[8],37.2%
same,"viability, T/C",[9],31.9%
same,"viability, T/C",[10],29.3%
same,"viability, T/C",[11],23.8%
same,"viability, T/C",[12],49.9%
same,"viability, T/C",[13],44.4%
same,"viability, T/C",[14],26.1%
same,"viability, T/C",[15],23.6%
same,"viability, T/C",[16],23.3%
same,"viability, T/C",[17],19.6%
same,"viability, T/C",[18],16%
same,"viability, T/C",[19],13.7%
same,"viability, T/C",[20],10.3%
same,"viability, T/C",[21],11.8%
same,"viability, T/C",[22],12%
same,"viability, T/C",[23],9.84%
same,"viability, T/C",[24],7.14%
same,"viability, T/C",[25],7.77%
same,"viability, T/C",[26],7.29%
same,"viability, T/C",[27],6.9%
same,"viability, T/C",[28],6.42%
same,"viability, T/C",[29],6.61%
same,"viability, T/C",[30],5.24%
same,"viability, T/C",[31],5.58%
same,"viability, T/C",[32],5.45%
same,"viability, T/C",[33],5.13%
same,"viability, T/C",[34],5.04%
same,"viability, T/C",[35],4.44%
